From BindingDB's records for doi:10.1074/jbc.M112.380782 (French Alternative Energies and Atomic Energy Commission, 2012) come the findings set out here.

The term Ki denotes a dissociation constant, usually derived from enzyme kinetics or from competition with a known ligand. Low values mean a stronger hold on the target, high ones a looser hold on the target. The IC50 is the concentration that inhibits the measured activity by half. High values mean weaker potency in that assay, low ones greater potency in that assay.

What all share (assay): Enzyme Assay
The target of assay [1] is 72 kDa type IV collagenase (Homo sapiens, UniProt P08253). The note with it: pH 6.8; 25 °C.
Assay [2] deals with T1, A disintegrin and metalloproteinase with thrombospondin motifs 5 (Homo sapiens, UniProt Q9UNA0).
T1 sequence (Q9UNA0 whole entry): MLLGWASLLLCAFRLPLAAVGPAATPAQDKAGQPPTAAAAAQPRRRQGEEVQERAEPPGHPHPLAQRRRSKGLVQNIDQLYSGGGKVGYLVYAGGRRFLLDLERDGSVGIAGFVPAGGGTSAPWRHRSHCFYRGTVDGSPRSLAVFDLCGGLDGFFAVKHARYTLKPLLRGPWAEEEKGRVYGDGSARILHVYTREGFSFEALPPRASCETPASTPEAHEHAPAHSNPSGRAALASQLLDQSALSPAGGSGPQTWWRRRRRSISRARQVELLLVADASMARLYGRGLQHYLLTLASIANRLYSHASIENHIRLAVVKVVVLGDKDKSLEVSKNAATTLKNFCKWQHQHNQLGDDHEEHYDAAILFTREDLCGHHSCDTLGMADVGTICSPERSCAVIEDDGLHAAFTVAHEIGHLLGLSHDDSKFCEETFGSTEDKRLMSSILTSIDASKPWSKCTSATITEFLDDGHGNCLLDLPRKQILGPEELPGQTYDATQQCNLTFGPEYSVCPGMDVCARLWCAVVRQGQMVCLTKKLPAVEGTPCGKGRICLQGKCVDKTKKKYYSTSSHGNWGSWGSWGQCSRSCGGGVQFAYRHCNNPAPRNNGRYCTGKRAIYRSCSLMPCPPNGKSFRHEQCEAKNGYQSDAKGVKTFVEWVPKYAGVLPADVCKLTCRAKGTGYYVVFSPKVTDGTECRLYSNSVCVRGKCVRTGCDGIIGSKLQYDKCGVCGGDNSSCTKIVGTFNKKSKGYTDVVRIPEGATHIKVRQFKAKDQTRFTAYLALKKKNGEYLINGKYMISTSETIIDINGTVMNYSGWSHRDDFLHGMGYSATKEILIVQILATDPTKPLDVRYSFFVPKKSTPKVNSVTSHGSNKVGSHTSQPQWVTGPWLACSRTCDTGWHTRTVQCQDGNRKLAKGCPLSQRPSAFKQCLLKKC
Conditions: pH 6.8; 37 °C.

A further assay concerns the target Collagenase 3 (Homo sapiens, UniProt P45452). Conditions: pH 6.8; 25 °C.
Assay [3] concerns the target Macrophage metalloelastase (Homo sapiens, UniProt P39900). The note with it: pH 6.8; 25 °C.
Assay [4] has as its target Matrix metalloproteinase-14 (Homo sapiens, UniProt P50281). The note with it: pH 6.8; 25 °C.
The target of assay [5] is Matrix metalloproteinase-9 (Homo sapiens, UniProt P14780). Conditions: pH 6.8; 25 °C.
A further assay concerns the target Stromelysin-1 (Homo sapiens, UniProt P08254). The note with it: pH 6.8; 25 °C.
A further assay has as its target Stromelysin-2 (Homo sapiens, UniProt P09238). Conditions: pH 6.8; 25 °C.
Assay [6] deals with T2, A disintegrin and metalloproteinase with thrombospondin motifs 4 (Homo sapiens, UniProt O75173).
T2 sequence (O75173 whole entry): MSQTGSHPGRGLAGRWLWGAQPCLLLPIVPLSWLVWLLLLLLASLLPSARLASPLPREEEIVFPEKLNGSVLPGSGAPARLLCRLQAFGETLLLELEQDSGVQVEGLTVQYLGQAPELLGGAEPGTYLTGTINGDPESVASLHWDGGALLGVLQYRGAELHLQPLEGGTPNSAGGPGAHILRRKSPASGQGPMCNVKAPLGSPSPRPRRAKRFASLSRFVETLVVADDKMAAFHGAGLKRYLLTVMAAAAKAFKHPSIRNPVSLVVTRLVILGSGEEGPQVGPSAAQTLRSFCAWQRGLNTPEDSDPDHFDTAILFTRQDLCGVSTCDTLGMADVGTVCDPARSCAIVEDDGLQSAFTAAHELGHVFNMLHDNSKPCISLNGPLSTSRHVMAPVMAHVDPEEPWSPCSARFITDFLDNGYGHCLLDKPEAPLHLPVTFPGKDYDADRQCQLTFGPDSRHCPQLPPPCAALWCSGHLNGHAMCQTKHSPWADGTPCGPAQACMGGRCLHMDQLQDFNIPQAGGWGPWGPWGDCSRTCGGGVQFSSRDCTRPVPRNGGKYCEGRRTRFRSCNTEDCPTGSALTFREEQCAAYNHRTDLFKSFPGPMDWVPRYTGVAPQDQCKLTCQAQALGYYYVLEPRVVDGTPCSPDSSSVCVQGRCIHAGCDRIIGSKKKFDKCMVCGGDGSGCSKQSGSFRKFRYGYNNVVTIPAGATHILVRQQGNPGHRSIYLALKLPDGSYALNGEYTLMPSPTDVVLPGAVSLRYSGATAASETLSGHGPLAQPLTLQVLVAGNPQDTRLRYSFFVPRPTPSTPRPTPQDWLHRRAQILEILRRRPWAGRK
The note with it: pH 6.8; 25 °C.

A further assay has as its target Neutrophil collagenase (Homo sapiens, UniProt P22894). Conditions: pH 6.8; 25 °C.
The next assay deals with T3, Interstitial collagenase (Homo sapiens, UniProt P03956).
T3 sequence (P03956 whole entry): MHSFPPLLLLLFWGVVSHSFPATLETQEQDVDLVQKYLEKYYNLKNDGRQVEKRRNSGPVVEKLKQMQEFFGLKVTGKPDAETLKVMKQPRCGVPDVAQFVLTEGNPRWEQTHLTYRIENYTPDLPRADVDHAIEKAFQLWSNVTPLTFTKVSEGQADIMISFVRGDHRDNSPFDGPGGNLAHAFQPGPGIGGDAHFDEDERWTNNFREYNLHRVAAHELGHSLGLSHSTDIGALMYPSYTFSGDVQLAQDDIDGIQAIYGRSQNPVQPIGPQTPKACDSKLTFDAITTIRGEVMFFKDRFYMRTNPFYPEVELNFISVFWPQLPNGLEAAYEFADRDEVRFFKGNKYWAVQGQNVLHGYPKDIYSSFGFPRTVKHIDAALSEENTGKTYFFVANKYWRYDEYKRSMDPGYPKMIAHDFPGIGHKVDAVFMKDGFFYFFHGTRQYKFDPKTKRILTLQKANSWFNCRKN
Conditions: pH 6.8; 25 °C.

The target of another assay is T4, Matrilysin (Homo sapiens, UniProt P09237).
T4 sequence (P09237 whole entry): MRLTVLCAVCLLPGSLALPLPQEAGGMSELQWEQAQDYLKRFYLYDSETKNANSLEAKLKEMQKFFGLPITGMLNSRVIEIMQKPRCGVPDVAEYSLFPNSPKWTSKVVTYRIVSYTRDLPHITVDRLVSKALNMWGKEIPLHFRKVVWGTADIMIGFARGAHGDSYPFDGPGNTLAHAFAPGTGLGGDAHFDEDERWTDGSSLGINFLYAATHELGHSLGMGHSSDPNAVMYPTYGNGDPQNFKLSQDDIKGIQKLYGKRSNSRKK
The note with it: pH 6.8; 25 °C.

Macrophage metalloelastase, sequence (P39900 whole entry): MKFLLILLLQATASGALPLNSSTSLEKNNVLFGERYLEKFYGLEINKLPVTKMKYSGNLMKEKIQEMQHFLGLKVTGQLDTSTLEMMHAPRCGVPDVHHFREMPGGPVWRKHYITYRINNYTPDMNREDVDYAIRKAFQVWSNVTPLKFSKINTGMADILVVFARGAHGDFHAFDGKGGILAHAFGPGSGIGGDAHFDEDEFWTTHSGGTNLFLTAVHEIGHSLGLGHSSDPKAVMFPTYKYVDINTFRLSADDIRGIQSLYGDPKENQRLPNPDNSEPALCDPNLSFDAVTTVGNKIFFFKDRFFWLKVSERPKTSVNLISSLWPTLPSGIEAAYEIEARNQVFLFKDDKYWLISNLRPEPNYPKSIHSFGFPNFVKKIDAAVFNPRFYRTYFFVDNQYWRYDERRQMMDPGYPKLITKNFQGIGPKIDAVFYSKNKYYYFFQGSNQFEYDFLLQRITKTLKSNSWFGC
Matrix metalloproteinase-9, sequence (P14780 whole entry): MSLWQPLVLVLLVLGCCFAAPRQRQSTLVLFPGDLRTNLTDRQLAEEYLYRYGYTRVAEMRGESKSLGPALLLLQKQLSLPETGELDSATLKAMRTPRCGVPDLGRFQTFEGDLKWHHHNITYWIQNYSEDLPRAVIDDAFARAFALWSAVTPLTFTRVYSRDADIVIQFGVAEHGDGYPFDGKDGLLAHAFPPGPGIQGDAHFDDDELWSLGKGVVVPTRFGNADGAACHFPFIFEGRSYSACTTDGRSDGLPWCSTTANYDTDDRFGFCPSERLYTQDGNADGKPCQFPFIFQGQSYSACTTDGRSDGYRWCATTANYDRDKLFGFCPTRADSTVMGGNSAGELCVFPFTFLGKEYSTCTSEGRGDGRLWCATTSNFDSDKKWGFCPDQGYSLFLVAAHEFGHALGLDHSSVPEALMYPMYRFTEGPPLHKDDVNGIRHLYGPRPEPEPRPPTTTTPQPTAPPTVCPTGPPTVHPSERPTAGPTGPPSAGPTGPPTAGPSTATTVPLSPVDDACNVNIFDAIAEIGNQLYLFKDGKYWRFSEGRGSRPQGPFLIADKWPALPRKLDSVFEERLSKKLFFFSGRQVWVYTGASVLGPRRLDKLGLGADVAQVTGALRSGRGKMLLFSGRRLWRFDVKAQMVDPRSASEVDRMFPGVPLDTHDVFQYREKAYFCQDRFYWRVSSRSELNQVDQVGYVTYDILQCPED
Stromelysin-2, sequence (P09238 whole entry): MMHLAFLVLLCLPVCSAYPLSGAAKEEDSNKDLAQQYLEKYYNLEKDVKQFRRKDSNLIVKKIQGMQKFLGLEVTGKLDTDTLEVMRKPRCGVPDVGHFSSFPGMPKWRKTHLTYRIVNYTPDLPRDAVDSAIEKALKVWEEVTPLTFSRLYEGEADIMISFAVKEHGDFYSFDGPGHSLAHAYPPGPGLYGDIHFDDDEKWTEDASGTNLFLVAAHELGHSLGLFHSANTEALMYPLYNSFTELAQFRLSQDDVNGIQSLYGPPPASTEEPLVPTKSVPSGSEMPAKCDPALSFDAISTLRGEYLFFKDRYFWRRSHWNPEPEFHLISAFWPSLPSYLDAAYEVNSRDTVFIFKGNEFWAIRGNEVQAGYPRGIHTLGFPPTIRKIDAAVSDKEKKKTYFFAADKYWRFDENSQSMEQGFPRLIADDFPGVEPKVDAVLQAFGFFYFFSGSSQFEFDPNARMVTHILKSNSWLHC
Stromelysin-1, sequence (P08254 whole entry): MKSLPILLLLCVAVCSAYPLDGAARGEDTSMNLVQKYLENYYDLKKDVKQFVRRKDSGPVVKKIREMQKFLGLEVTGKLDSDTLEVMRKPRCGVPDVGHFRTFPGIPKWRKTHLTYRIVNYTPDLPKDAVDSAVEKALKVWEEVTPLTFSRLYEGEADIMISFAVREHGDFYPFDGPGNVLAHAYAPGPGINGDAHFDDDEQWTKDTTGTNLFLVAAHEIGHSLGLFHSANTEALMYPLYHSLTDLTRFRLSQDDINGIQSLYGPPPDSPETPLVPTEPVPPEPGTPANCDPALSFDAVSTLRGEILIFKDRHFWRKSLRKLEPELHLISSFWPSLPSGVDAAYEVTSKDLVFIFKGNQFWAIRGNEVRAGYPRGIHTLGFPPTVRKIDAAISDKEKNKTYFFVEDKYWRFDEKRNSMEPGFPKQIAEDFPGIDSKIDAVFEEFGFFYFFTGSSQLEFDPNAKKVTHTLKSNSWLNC
Neutrophil collagenase, sequence (P22894 whole entry): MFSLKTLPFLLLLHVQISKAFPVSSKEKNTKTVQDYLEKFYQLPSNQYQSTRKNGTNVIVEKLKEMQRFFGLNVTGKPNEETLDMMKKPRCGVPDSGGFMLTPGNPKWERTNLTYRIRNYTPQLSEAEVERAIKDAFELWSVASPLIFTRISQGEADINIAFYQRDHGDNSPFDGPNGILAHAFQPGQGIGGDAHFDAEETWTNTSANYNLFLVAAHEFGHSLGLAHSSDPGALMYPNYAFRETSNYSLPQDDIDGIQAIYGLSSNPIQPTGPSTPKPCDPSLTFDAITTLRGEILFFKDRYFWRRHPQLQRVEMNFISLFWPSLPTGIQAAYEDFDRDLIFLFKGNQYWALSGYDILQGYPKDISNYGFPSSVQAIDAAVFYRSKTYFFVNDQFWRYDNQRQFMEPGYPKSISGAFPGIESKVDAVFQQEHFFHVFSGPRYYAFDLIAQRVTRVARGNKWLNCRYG
72 kDa type IV collagenase, sequence (P08253 whole entry): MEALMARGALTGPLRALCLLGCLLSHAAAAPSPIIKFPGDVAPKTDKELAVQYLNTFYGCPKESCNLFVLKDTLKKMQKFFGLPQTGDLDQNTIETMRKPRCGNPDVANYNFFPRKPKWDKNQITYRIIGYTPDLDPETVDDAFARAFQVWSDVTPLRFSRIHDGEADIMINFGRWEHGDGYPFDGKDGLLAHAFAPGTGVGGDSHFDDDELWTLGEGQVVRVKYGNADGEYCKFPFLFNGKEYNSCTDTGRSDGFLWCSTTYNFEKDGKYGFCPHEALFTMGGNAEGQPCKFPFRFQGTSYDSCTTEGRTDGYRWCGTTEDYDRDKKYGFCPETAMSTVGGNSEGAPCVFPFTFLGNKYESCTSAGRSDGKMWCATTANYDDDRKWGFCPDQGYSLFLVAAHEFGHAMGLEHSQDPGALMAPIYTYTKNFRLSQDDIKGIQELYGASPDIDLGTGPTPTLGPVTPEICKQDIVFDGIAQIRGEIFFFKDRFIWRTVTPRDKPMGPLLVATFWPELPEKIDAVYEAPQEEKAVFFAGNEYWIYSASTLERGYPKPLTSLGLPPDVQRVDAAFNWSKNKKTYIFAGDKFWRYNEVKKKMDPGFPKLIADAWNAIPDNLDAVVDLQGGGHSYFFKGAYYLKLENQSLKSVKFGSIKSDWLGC

Take `NC(=O)[C@H](CCC(=O)O)NC(=O)c1ccc(-c2cc(-c3ccccc3)cs2)cc1` [Inhibitor, 16]: the Ki stood at 127 nM in assay [1]; 874 nM in assay [2]; 501 nM at Collagenase 3; 2.5 nM in assay [3]; 968 nM in assay [4]; 2230 nM in assay [5]. Also, the Ki on Stromelysin-1 amounted to 5820 nM; at Stromelysin-2, 299 nM.

Consider `Cc1ccc(-c2ccc(CCC(=O)N[C@@H](CCC(=O)O)C(N)=O)cc2)s1` [Inhibitor, 17], for which the inhibition constant Ki in assay [1] was 57 nM; in [6], greater than 10000 nM; in assay [2], 3220 nM; on Collagenase 3 it was 338 nM; in [3], 3.3 nM; in assay [4], 2350 nM. The inhibitory constant (Ki) was 91 nM in assay [5], 5.3 nM on Neutrophil collagenase, 2160 nM at Stromelysin-1 and 390 nM on Stromelysin-2.

In the case of `NC(=O)[C@H](CCC(=O)O)NC(=O)CCc1ccc(-c2ccc(-c3ccccc3)cc2)cc1` [Inhibitor, 18], the Ki in assay [1] came to 47 nM; in [2] it was 5800 nM; at Collagenase 3, 18 nM; in assay [3], 3.3 nM; in assay [4], 1050 nM; in [5], 2190 nM. Moreover, the inhibition constant Ki at Neutrophil collagenase amounted to 205 nM; at Stromelysin-1, 103 nM; at Stromelysin-2 it was 54 nM.

For `NC(=O)[C@H](CCC(=O)O)NC(=O)CCc1ccc(-c2ccc(-c3ccccc3)s2)cc1` [Inhibitor, 19], the inhibition constant (Ki) in assay [1] is 583 nM; in assay [2] it was 585 nM; in assay [3], 2.9 nM; in assay [4], greater than 10000 nM; in [5] it was 1330 nM; on Stromelysin-1 it was 329 nM. On Stromelysin-2, this compound returned an inhibition constant Ki of 352 nM.

As for `CC(C)C(NS(=O)(=O)c1ccc2c(c1)oc1ccc(N3CCOC3=O)cc12)C(=O)O` (stereo unspecified) [MMP Inhibitor, 2], the half-maximal inhibitory concentration (IC50) is 66 nM in assay [1]; 46 nM against Collagenase 3; greater than 2000 nM against Interstitial collagenase; greater than 2000 nM against Matrilysin; greater than 2000 nM in assay [4]; greater than 300 nM in assay [5]. Further, the 50% inhibitory concentration (IC50) at Neutrophil collagenase is 37 nM; on Stromelysin-1 it was greater than 300 nM.

Turning to `O=C(NCc1ccc(F)c(Cl)c1)c1cc(C(=O)NCC23CCC(C(=O)O)(CC2)CC3)n2nccc2n1` [MMP Inhibitor, 6], the IC50 on Collagenase 3 is 33.4 nM.

As to `NC(=O)[C@@H](CCC(=O)O)NC(=O)[C@H](CCC(=O)O)NC(=O)C(Cc1cc(-c2ccc(-c3cccc(Cl)c3)cc2)no1)CP(=O)(O)c1ccc(Br)cc1` (stereo partly specified) [RXP470, Compound 4], the Ki in assay [1] was greater than 100 nM; at Interstitial collagenase it was greater than 1000 nM; in assay [3], 0.2 nM; in [4] it was greater than 100 nM; in assay [5], greater than 100 nM; at Neutrophil collagenase, greater than 100 nM. The same compound showed a Ki at Stromelysin-2 of 8 nM.

Take `NC(=O)[C@H](CCC(=O)O)NC(=O)CCc1ccc(-c2cc(-c3ccccc3)cs2)cc1` [US8691753, 105]: the inhibition constant (Ki) in assay [2] stood at 4200 nM; in assay [3], 3.6 nM; in [4], 3010 nM; in assay [5] it was 2630 nM; at Stromelysin-1, 3000 nM; on Stromelysin-2, 3110 nM.
